Results on three compounds are retold here after publication PMC7756445, “A Novel Prodrug of a nNOS Inhibitor with Improved Pharmacokinetic Potential” (Chemmedchem, 2020).

A short description of data set [1]: Log D and log P by shake-flask method. The data set is classed as physicochemical. The settings on record: for logP: shake-flask, as free amine, mean ± SD of three. From the text: The herein presented amidoxime 2 was designed as prodrug of the amidine 1 to improve membrane permeability and oral bioavailability. In this context, the deepening of the physicochemical properties is essential to obtain a favorable pharmacological profile. Therefore, we investigated the lipophilicity, the passive permeation through the human GI tract through the PAMPA assays, and the chemical and enzymatic stabilities in simulated GI fluids and plasma. […] In this study, the lipophilicity of our compounds was determined by means of the “shake‐flask method” and compared to the corresponding values calculated by the software. ^[43] However, for ionizable compounds, the distribution coefficient (log D) should be used instead of log P in the pH range where ionic species exist. ^[44] In this study, log P and log D were calculated (Table 1).
The column was a Waters Symmetry RP‐C18 column (4.6×150 mm, 5 μm). The mobile phase was a mixture of TFA 0.01 M/ACN/(MeOH/THF 90 : 10) 20/52/28 and the flow rate was 0.7 mL/min. The UV detector was set at a length of 254 nm.
Both n‐octanol and aqueous buffer (pH 1.4, 6.5 and 9.4) solutions were saturated of each other. 2 mg of tested compound was dissolved in 500 μL of organic phase and mixed with an equal volume of aqueous buffer by repeated inversions of up to 200 times for 5 min and then allowed to stand for 30 min for the phases to fully separate. Thereafter, the respective phases were analyzed by HPLC.

A short description of the next data set: PAMPA-GI assay. Also on record: Papp at 2 h: dose or concentration left out as unconfirmed. The settings on record: for Papp at 2 h: PAMPA; for PAMPA-GI permeability (in words): only at pH 7.4. On the procedure:
(§1) The relative passive transcellular diffusion of compounds, expressed as permeability coefficient (Pe), was determined with a permeability equation. ^[45] The permeabilities of 1, 2, and 1400 W were determined at pH 5.0, 6.5, and 7.4 to mimic the physiological conditions of the GI tract (Table 1). […] As the new prodrug was designed for the potential treatment of neurodegenerative diseases, an important parameter is its capability to cross the BBB.
Each donor filtration plate well, carefully impregnated with 5 µL of this solution, was added of 150 μL of […] test compound buffer solutions (phosphate buffer for pH 7.4 and pH 6.5 and hydrochloric acid buffer for pH 1.4). Subsequently, the drug‐filled donor plate was placed onto the acceptor plate prefilled with the same buffer (300 μL) as the acceptor solution. Once replaced the plate lid, the resulting assembled donor‐acceptor plates were incubated at room temperature for 2 h. The concentration in the acceptor and donor solutions were determined by HPLC. The Pe was determined as previously reported. ^[47]
(The PAMPA barrier holds no transporters, so it reflects passive diffusion.)

The next data set is described as follows: PAMPA-BBB assay. Also on record: Papp at 18 h: dose or concentration left out as unconfirmed. The settings on record: for Papp at 18 h: pig, PAMPA. On the procedure:
as §1
PAMPA‐BBB assays were performed following the same procedure described above for PAMPA‐GI. Briefly, an artificial membrane consisting in a porcine polar brain lipid extract mixture (purchased from Avantis Polar Lipids, Alabaster, AL, USA) and an incubation time of 18 h were adopted as experimental conditions.

The next data set has as its system mARC. Also noted: method as in PMID 31790578. The settings on record: known in vivo studies; cited from earlier work.
Another data set has as its system nNOS. Also noted: method as in PMID 20933416. The settings on record: previously reported; cited from earlier work.
Another data set has as its system eNOS. Also noted: method as in PMID 20933416. The settings on record: previously reported; cited from earlier work.
For a further data set, the system named is iNOS. Also noted: method as in PMID 20933416. The settings on record: previously reported; cited from earlier work.
Where [2] appears, read: porcine polar brain lipid, 18 h.

Like-named read-outs stand apart in the source and are kept apart here.

With `CC(=N)NCc1cccc(CN)c1` [1400 W, reference compound], the logD is -1.82 in data set [1] (n-octanol/aqueous buffer pH 1.4, mean ± SD of three, read-out: log D 1.4); -1.78 in data set [1] (n-octanol/aqueous buffer pH 6.5, mean ± SD of three, read-out: log D 6.5); -1.66 in data set [1] (n-octanol/aqueous buffer pH 9.4, mean ± SD of three, read-out: log D 9.4). Further, the logP in data set [1] (n-octanol/aqueous buffer) was -1.66. Also, the Papp at 2 h in the data set “PAMPA-GI assay” (pH 1.4) stood at 0.98 ×10⁻⁶ cm/s; in the data set “PAMPA-GI assay” (pH 6.5), 1.02 ×10⁻⁶ cm/s; in the data set “PAMPA-GI assay” (pH 7.4), 1.86 ×10⁻⁶ cm/s. Moreover, in the data set “PAMPA-GI assay”, the “PAMPA-GI permeability (in words)” value was “good permeability”. In the data set “PAMPA-BBB assay”, the Papp at 18 h is 1.49 ×10⁻⁶ cm/s. For the same compound, in “PAMPA-BBB assay” (setting [2]), the PAMPA-BBB permeation class result is listed as “CNS− (CNS− (indicative of low BBB permeation): Pe <2.0)”.

Take `NC(=NO)c1ccccc1` [BAO, benzamidoxime]: in the data set on mARC, the “conversion to the corresponding benzamidine in vivo” value is given as “completely converted”.

`Br.CC(=N)NC(c1ccccc1)c1ccccc1` [Compound 1, 1‐(benzhydrylamino)ethaniminium bromide]: the melting point lay within 278 to 280 °C. Further, the logD in data set [1] (n-octanol/aqueous buffer, pH 1.4, n-octanol/aqueous buffer pH 1.4, mean ± SD of three, read-out: log D 1.4) was -0.85. In addition, the logD in data set [1] (n-octanol/aqueous buffer, pH 6.5, n-octanol/aqueous buffer pH 6.5, mean ± SD of three, read-out: log D 6.5) was -0.31. Besides, in data set [1] (n-octanol/aqueous buffer, pH 9.4, n-octanol/aqueous buffer pH 9.4, mean ± SD of three, read-out: log D 9.4), the logD is 0.75. This compound also displayed a logP in data set [1] (n-octanol/aqueous buffer) of 2.54. The compound also returned a Papp at 2 h in the data set “PAMPA-GI assay” (pH 1.4) of 0.57 ×10⁻⁶ cm/s. The Papp at 2 h in the data set “PAMPA-GI assay” (pH 6.5) is 1.02 ×10⁻⁶ cm/s. Also, the Papp at 2 h in the data set “PAMPA-GI assay” (pH 7.4) came out at 1.88 ×10⁻⁶ cm/s. The “PAMPA-GI permeability (in words)” value in the data set “PAMPA-GI assay” is listed as “good permeability”. For the same compound, in “PAMPA-BBB assay” (PAMPA-BBB permeability Pe, porcine polar brain lipid, 18 h), the Papp at 18 h is 2.7 ×10⁻⁶ cm/s. Moreover, the PAMPA-BBB permeation class result in “PAMPA-BBB assay” (setting [2]) was “CNS± (CNS± (discrete BBB permeation): Pe from 4.0 to 2.0)”. Moreover, the IC50 in the data set on nNOS was 300 nM. Further, the eNOS/nNOS selectivity with eNOS is 1166 folds. For the same compound, the iNOS/nNOS selectivity in the data set on iNOS is recorded as 100 folds.

A word on the logP: it is a log measure of how a compound divides between an organic and an aqueous phase. As a reminder, the Papp is a coefficient for how fast a substance crosses the barrier. Usually melting point stands for the temperature of the solid-liquid transition. Usually IC50 stands for the point on the concentration scale where inhibition reaches its midpoint.
